Tests used:
[1] = Cytotoxicity against human MAGI-CCR5 cells assessed as inhibition of cell viability by MTS assay; format: cell-based; settings: read-out: TC50 (the source's name)
[2] = Cytotoxicity against human TZM-bl cells assessed as inhibition of cell viability by resazurin assay; settings: read-out: TC50 (the source's name)
[3] = Binding affinity to HIV1 Envelope glycoprotein gp41 Fe(env2.0)3 using C18FL as probe by fluorescence assay; set-up: species or system Human immunodeficiency virus 1
[4] = tested on: Human immunodeficiency virus 1; experiment: Antiviral activity against HIV-1 3B infected in human MAGI-CCR5 cells assessed as inhibition of viral replication after 48 hrs by chemiluminescence assay; format: functional, organism-based; settings: Human immunodeficiency virus 1, 3B, MAGI-CCR5, 48 h
[5] = tested on: Human immunodeficiency virus 1; experiment: Antiviral activity against HIV-1 Ba-L infected in human MAGI-CCR5 cells assessed as inhibition of viral replication after 48 hrs by chemiluminescence assay; format: functional, organism-based; settings: Human immunodeficiency virus 1, Ba-L, MAGI-CCR5, 48 h
[6] = Inhibition of HIV1 HXB2 gp41-mediated cell-cell fusion between viral envelope-expressing human HL2/3 cells to human TZM-bl cells by luciferase reporter assay; format: cell-based; settings: Human immunodeficiency virus 1, HXB2, TZM-bl

Row | SMILES | CC50 [1] | CC50 [2] | Ki [3] | EC50 [4] | EC50 [5] | EC50 [6]
1 | O=C(O)c1cccc(Cn2ccc3cc(-c4ccc5ccn(Cc6cccc(C(=O)O)c6)c5c4)ccc32)c1 | > 100 µM | > 100 µM | 0.7 µM | 17 µM | 20 µM | 2 µM
2 | O=C(O)c1cccc(Cn2ccc3ccc(-c4ccc5ccn(Cc6ccc(Oc7ccccc7F)cc6)c5c4)cc32)c1 | > 100 µM | > 100 µM | 9.5 µM | 5.5 µM | 5.3 µM | 8.2 µM
3 | O=C(O)c1cccc(Cn2ccc3ccc(-c4ccc5ccn(Cc6ccc(COc7ccccc7)cc6)c5c4)cc32)c1 | > 100 µM | > 100 µM | 6.2 µM | 32 µM | 27 µM | 17 µM
4 | O=C(O)c1cccc(Cn2ccc3ccc(-c4ccc5cc(Cl)ccc5n4)cc32)c1 | > 100 µM | 50 µM |  |  | 48 µM | 
5 | COc1ccc(Cn2ccc3ccc(-c4ccc5c(ccn5Cc5cccc(C(=O)O)c5)c4)cc32)cc1 | 18 µM | > 100 µM | 3 µM | 19 µM | 18 µM | 7 µM
6 | O=C(O)c1cccc(Cn2ccc3ccc(-c4ccc5ccn(Cc6cccc(C(=O)O)c6)c5c4)cc32)c1 | > 100 µM | > 100 µM | 0.6 µM | 67 µM | 58 µM | 12 µM
7 | O=C(O)c1cccc(Cn2ccc3ccc(-c4ccc5ccn(Cc6ccc(F)cc6)c5c4)cc32)c1 |  | > 25 µM | 1.7 µM |  | 1.6 µM | 1.1 µM
8 | O=C(O)c1cccc(Cn2ccc3ccc(-c4ccc5ccn(Cc6ccccc6)c5c4)cc32)c1 | > 100 µM | > 50 µM | 3.5 µM | 4.6 µM | 4.4 µM | 2 µM
9 | COc1cccc(Cc2c[nH]c3cc(-c4ccc5ccn(Cc6cccc(C(=O)O)c6)c5c4)ccc23)c1 | 24 µM | 33 µM | 0.9 µM | 5.8 µM | 5.6 µM | 6 µM
10 | NC(=O)c1cccc(Cn2ccc3ccc(-c4ccc5ccn(Cc6cccc(C(=O)O)c6)c5c4)cc32)c1 | > 100 µM | > 100 µM | 0.8 µM | 51 µM | 39 µM | 6 µM
11 | O=C(O)c1cccc(Cn2ccc3ccc(-c4ccc5ccn(Cc6ccc(-c7ccccc7)cc6)c5c4)cc32)c1 | 55 µM | > 50 µM | 2 µM | 2 µM | 2.1 µM | 13 µM
12 | COc1ccc(Cn2ccc3ccc(-c4ccc5ccn(Cc6cccc(C(=O)O)c6)c5c4)cc32)cc1 | 32 µM | 20 µM |  | 0.9 µM | 0.9 µM | 
13 | O=C(O)c1cccc(Cn2ccc3cc(-c4ccc5cc(Cl)ccc5n4)ccc32)c1 |  | 100 µM |  |  | 6 µM | 8 µM
14 | O=C(O)c1cccc(Cn2cnc3ccc(-c4ccc5cc[nH]c5c4)cc32)c1 | > 100 µM | > 100 µM | 11 µM | 36 µM | 41 µM | 14 µM
15 | COc1cccc(Cn2cnc3cc(-c4ccc5ccn(Cc6cccc(C(=O)O)c6)c5c4)ccc32)c1 | > 100 µM | > 100 µM | 5.3 µM | 49 µM | 28 µM | 56 µM
16 | COc1cccc(Cn2ccc3ccc(-c4ccc5c(Cc6cccc(C(=O)O)c6)c[nH]c5c4)cc32)c1 | 34 µM | 57 µM | 1.6 µM | 18 µM | 18 µM | 7 µM
17 | COc1cccc(Cn2ccc3ccc(-c4ccc5ccn(Cc6cccc(C(=O)O)c6)c5c4)cc32)c1 | 37 µM | 71 µM | 1.1 µM | 0.9 µM | 0.9 µM | 1 µM

Row | SMILES | CC50 [1] | CC50 [2] | Ki [3] | EC50 [4] | EC50 [5] | EC50 [6]
18 | COc1cc(Cn2ccc3ccc(-c4ccc5ccn(Cc6cccc(C(=O)O)c6)c5c4)cc32)cc(OC)c1 | 49 µM | 93 µM | 0.9 µM | 1.5 µM | 1.5 µM | 2.3 µM
19 | COc1ccc(Cn2ccc3cc(-c4ccc5c(ccn5Cc5cccc(C(=O)O)c5)c4)ccc32)cc1 | 55 µM | > 100 µM | 3.9 µM | 20 µM | 18 µM | 12 µM
20 | COc1ccc(Cn2ccc3cc(-c4ccc5ccn(Cc6cccc(C(=O)O)c6)c5c4)ccc32)cc1 | 24 µM | 91 µM | 4.2 µM | 8.3 µM | 6.9 µM | 3.5 µM
21 | Cn1ccc2ccc(-c3ccc4ccn(Cc5cccc(C(=O)O)c5)c4c3)cc21 | > 50 µM | > 50 µM | 0.3 µM | 4.3 µM | 4.5 µM | 1.3 µM
22 | COc1cccc(Cn2ccc3ccc(-c4ccc5c(c4)ncn5Cc4cccc(C(=O)O)c4)cc32)c1 | > 100 µM | > 100 µM | 3.8 µM | > 100 µM | 48 µM | 6 µM
23 | COC(=O)c1cccc(Cc2c[nH]c3ccc(-c4ccc5[nH]cc(Cc6cccc(C(=O)O)c6)c5c4)cc23)c1 | 31 µM | 99 µM | 1.2 µM | 4.8 µM | 5 µM | 2 µM
24 | O=C(O)c1cccc(Cc2c[nH]c3ccc(-c4ccc5cc[nH]c5c4)cc23)c1 | 80 µM | 194 µM | 1.7 µM | 13 µM | 13 µM | 5 µM
25 | O=C(O)c1cccc(Cn2ccc3ccc(-c4cccc(O)c4)cc32)c1 | 94 µM | 100 µM |  |  | 23 µM | 8 µM
26 | COc1cccc(Cc2c[nH]c3cc(-c4ccc5c(Cc6cccc(C(=O)O)c6)c[nH]c5c4)ccc23)c1 | 12 µM | 500 µM | 0.9 µM | 6.2 µM | 5.9 µM | 4 µM
27 | COc1cccc(-c2ccc3ccn(Cc4cccc(C(=O)O)c4)c3c2)c1 | > 100 µM | > 100 µM |  |  | 28 µM | 14 µM
28 | Cn1nnc2ccc(Cn3ccc4ccc(-c5ccc6ccn(Cc7cccc(C(=O)O)c7)c6c5)cc43)cc21 | 52 µM | > 100 µM | 1.5 µM | 9.4 µM | 6.6 µM | 2.5 µM
29 | O=C(O)c1cccc(Cc2c[nH]c3cc(-c4ccc5cc[nH]c5c4)ccc23)c1 | 23 µM | 290 µM | 0.6 µM | 14 µM | 13 µM | 6 µM
30 | COc1cccc(Cn2ccc3ccc(-c4ccc5ncn(Cc6cccc(C(=O)O)c6)c5c4)cc32)c1 | > 100 µM | > 100 µM | 6 µM | 57 µM | 54 µM | 34 µM
31 | COc1cccc(Cn2cnc3ccc(-c4ccc5ccn(Cc6cccc(C(=O)O)c6)c5c4)cc32)c1 | > 100 µM | > 100 µM | 4.7 µM | 63 µM | 56 µM | 45 µM
32 | O=C(O)c1cccc(Cn2cnc3cc(-c4ccc5cc[nH]c5c4)ccc32)c1 | > 100 µM | > 100 µM | 16 µM | > 100 µM | > 100 µM | 124 µM
33 | O=C(O)c1cccc(Cn2ccc3ccc(-c4ccc5ccn(Cc6ccc(C(F)(F)F)cc6)c5c4)cc32)c1 | 52 µM | > 50 µM | 1 µM | 1 µM | 0.9 µM | 2 µM

Reference: ChEMBL document CHEMBL3286109, “Structure-activity relationship studies of indole-based compounds as small molecule HIV-1 fusion inhibitors targeting glycoprotein 41” (J Med Chem, 2014)
